For 54 compounds, IC50 results are on record in patent publication US8759528B2, “Piperidine derivatives, pharmaceutical compositions and uses thereof” (Boehringer Ingelheim International GmbH, priority 2011, dated 2014).

SMILES strings stand for the structures.

T1 sequence (O00763 129-2458 limits assumed): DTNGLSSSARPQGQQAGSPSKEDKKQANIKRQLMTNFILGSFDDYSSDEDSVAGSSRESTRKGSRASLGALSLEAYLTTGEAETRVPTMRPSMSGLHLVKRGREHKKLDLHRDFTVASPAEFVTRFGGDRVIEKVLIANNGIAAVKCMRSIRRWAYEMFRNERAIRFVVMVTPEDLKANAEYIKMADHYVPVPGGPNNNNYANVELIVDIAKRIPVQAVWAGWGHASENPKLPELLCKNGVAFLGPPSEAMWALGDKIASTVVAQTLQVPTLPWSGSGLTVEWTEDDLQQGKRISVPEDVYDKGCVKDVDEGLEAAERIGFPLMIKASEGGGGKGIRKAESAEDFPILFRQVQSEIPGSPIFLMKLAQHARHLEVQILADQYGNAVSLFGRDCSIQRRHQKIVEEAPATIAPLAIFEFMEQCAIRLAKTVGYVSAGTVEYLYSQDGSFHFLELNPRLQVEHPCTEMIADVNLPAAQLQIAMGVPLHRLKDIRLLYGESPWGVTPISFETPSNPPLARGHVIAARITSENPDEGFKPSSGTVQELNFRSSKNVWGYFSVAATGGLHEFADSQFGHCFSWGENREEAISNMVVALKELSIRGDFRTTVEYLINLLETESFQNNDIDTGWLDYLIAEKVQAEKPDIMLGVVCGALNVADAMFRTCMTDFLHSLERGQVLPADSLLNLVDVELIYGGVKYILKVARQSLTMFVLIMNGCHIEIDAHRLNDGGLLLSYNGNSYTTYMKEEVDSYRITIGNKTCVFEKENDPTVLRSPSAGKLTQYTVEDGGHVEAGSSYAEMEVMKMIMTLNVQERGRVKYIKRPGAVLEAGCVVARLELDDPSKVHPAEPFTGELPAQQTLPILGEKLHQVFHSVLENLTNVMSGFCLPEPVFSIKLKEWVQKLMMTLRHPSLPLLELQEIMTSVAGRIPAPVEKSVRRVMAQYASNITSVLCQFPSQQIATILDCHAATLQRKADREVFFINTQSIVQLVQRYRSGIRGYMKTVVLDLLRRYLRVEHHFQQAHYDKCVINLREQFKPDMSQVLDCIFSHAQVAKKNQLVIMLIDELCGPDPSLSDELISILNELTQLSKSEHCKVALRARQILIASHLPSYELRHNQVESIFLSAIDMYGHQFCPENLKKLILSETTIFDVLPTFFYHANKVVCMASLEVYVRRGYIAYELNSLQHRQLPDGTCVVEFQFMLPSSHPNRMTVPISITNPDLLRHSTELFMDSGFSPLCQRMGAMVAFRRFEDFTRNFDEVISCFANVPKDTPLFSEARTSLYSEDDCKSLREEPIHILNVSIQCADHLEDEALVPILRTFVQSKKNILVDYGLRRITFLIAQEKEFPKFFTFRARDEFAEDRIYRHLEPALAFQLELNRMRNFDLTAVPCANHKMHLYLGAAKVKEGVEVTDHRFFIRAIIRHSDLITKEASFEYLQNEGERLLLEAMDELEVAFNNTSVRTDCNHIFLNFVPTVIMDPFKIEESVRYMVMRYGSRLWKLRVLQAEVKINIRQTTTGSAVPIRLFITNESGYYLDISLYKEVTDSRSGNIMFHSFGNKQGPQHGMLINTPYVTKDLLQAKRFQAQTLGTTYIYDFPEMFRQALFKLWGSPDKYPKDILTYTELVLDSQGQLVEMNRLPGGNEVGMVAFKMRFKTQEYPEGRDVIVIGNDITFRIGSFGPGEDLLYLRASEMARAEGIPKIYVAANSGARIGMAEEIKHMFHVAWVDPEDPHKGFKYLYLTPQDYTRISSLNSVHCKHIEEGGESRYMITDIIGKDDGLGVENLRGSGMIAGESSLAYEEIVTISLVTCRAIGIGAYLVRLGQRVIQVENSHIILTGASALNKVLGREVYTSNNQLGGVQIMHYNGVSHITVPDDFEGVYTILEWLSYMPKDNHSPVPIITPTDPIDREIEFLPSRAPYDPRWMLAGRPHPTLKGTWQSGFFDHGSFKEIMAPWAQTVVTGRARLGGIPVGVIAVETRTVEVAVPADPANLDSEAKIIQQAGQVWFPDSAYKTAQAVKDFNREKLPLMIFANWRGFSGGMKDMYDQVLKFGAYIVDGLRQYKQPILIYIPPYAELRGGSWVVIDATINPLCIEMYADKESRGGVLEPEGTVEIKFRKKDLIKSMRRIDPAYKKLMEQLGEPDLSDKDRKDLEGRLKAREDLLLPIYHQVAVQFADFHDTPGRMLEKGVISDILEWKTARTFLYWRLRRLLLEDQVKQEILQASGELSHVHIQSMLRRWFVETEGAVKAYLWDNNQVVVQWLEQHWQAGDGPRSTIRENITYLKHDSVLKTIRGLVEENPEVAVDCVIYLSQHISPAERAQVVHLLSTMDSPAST

This assay addresses T1, human ACC2 (Homo sapiens, UniProt O00763).
T1 construct: lacks the 128 amino acids at the N-terminus for increased solubility (nt 385-6966 in Genbank entry AJ575592); made in house; host or cells: insect cells (baculoviral expression system)
In words: ACC2 spectrophotometric 384 well assay (NADH-linked, coupled lactate dehydrogenase/pyruvate kinase). Particulars: hACC2 construct lacking the 128 N-terminal amino acids; 25° C., 340 nm, 15 minutes. The assay is classed as biochemical. The protocol: Spectrophotometric 384 Well Assay
Malonyl CoA formation by acetyl CoA carboxylases is stoichometrically linked to the consumption of ATP. ACC2 activity is measured in a NADH-linked kinetic method measuring ADP generated during the ACC reaction using a coupled lactate dehydrogenase/pyruvate kinase reaction.
For biological testing, a human ACC2 construct which lacks the 128 amino acids at the N-terminus for increased solubility (nt 385-6966 in Genbank entry AJ575592) is cloned. The protein is then expressed in insect cells using a baculoviral expression system. Protein purification is performed by anion exchange. All compounds are dissolved in dimethyl sulfoxide (DMSO) to a concentration of 10 mM.
Assay reactions are then carried out in 384-well plates, with hACC2 in an appropriate dilution and at final assay concentrations (f.c.) of 100 mM Tris (pH 7.5), 10 mM trisodium citrate, 25 mM KHCO3, 10 mM MgCl2, 0.5 mg/ml BSA, 3.75 mM reduced L-glutathione, 15 U/ml lactate dehydrogenase, 0.5 mM phosphoenolpyruvate, 15 U/ml pyruvate kinase, compounds at different concentrations at final DMSO concentrations of 1%.
The enzymatic reaction is then started by addition of a mixture of NADH, acetyl Coenzyme A (both […].) and ATP (500 uM f.c.). The decrease of the optical density (slope S) is then determined at 25° C. at a wavelength of 340 nm over 15 minutes in a spectrophotometric reader.
Each assay microtiter plate contains wells with vehicle instead of compound as controls for the non-inhibited enzyme (100% CTL; ‘HIGH’) and wells without acetyl-CoA as controls for non-specific NADH degradation (0% CTL; ‘LOW’).
The slope S is used for calculation of % CTL=(S(compound)−S(‘LOW’))/(S('HIGH)−S(‘LOW’))*100. Compounds will give values between 100% CTL (no inhibition) and 0% CTL (complete inhibition).
For IC50 value determination, the sample slope in the presence of the test compound after subtraction of the low controls (S(compound)−S(‘LOW’)) are used.
An IC50 value is derived from the compound slopes at different dosages after subtraction of the low controls (S(compound)−S(‘LOW’)) by non-linear regression curve fitting (equation y=(A+((B−A)/(1+((C/x)^D))))).
Consider `CCCOc1ccc(C2CCN(c3ccc(C(C)C(=O)NCC)cc3)CC2)c(C)c1` (stereo not drawn) [Example 7.10], for which the IC50 was found to be 840 nM. In turn, `CCOc1ccc(N2CCC(c3ccc(C(C)C(=O)NCC4CC4)cc3)CC2)cc1` (stereo not drawn) [Example 4.16] returned an IC50 of 650 nM. As for `CCNC(=O)C(C)c1ccc(C2CCN(c3ccnc(OC(C)C)n3)CC2)cc1` (stereo not drawn) [Example 6.2], the IC50 amounted to 3050 nM. With `CCCOc1ccc(N2CCC(c3ccc(C(C)C(=O)NCC)cc3)CC2)cc1` (stereo not drawn) [Example 1.8] the figure was 180 nM. Regarding `CCNC(=O)C(C)c1ccc(C2CCN(c3ccc(OC4CCC4)cc3)CC2)cc1` (stereo not drawn) [Example 1.5], the IC50 came out at 120 nM. Turning to `CCOc1ccc(N2CCC(c3ccc(C(C)C(N)=O)cc3)CC2)cc1` (stereo not drawn) [Example 4.17], the IC50 was 770 nM. With `CCNC(=O)C(C)c1ccc(N2CCC(c3ccc(OC(C)C)cc3)CC2)cc1` (stereo not drawn) [Example 7.7] the figure was 340 nM. With `CCOc1ccc(N2CCC(c3ccc(C(C)C(=O)NC4CC4)cc3)CC2)c(F)c1` (stereo not drawn) [Example 1.13] the figure was 140 nM. Turning to `CCNC(=O)C(C)c1ccc(N2CCC(c3cccc(OC4CCC4)c3)CC2)cc1` (stereo not drawn) [Example 7.8], the IC50 is 1650 nM. On to `CN(c1nccc(N2CCC(c3ccc(CC(N)=O)cc3)CC2)n1)C1CCCC1` [Example 4.7], for which the IC50 came to 1260 nM. As for `CCNC(=O)C(C)c1ccc(N2CCC(c3ccc(OCC4CC4)cc3F)CC2)cc1` (stereo not drawn) [Example 7.2], the figure is 1010 nM; as for `CN(c1nccc(N2CCC(c3ccc(CC(=O)NCc4ccccc4)cc3)CC2)n1)C1CCCC1` [Example 4.12], 7940 nM.

For `CCOc1ccc(N2CCC(c3ccc(C(C)C(=O)NC4CC4)cc3)CC2)cc1` (stereo not drawn) [Example 4.1, N-Cyclopropyl-2-{4-[1-(4-ethoxy-phenyl)-piperidin-4-yl]-phenyl}-propionamide], the IC50 was 100 nM. With `CCNC(=O)C(C)c1ccc(C2CCN(c3ccc(OCC4CC4)cc3OC)CC2)cc1` (stereo not drawn) [Example 2.1, 2-{-4-[1-(4-Cyclopropylmethoxy-2-methoxy-phenyl)-piperidin-4-yl]-phenyl}-N-ethyl-propionamide] the figure was 750 nM; with `CCNC(=O)C(C)c1ccc(C2CCN(c3ccc(OC4CC4)cc3)CC2)cc1` (stereo not drawn) [Example 1.2], 210 nM; with `CC(C)CNC(=O)Cc1ccc(C2CCN(c3ccnc(N(C)C4CCCC4)n3)CC2)cc1` [Example 4.13], 1860 nM. Take `CCNC(=O)C(C)c1ccc(C2CCN(c3ccc(OCC)cc3)CC2)cc1` (stereo not drawn) [Example 1.1, 2-{-4-[1-(4-Ethoxy-phenyl)-piperidin-4-yl]-phenyl}-N-ethyl-propionamide]: the IC50 stood at 240 nM. As for `CC(C(=O)NC1CC1)c1ccc(C2CCN(c3ccc(OCC4CC4)cc3C#N)CC2)cc1` (stereo not drawn) [Example 3.1, 2-{4-[1-(2-Cyano-4-cyclopropylmethoxy-phenyl)-piperidin-4-yl]-phenyl}-N-cyclopropyl-propionamide], the figure is 150 nM; as for `CCNC(=O)C(C)c1ccc(C2CCN(c3ccc(OC4CCC4)cc3OC)CC2)cc1` (stereo not drawn) [Example 2.2], 250 nM. On to `CCNC(=O)C(C)c1ccc(N2CCC(c3ccc(OCC)cc3)CC2)cc1` (stereo not drawn) [Example 7.1, 2-{4-[4-(4-Ethoxy-phenyl)-piperidin-1-yl]-phenyl}-N-ethyl-propionamide], for which half-maximal inhibition (IC50) was put at 1000 nM. On to `CCOc1ccc(N2CCC(c3ccc(C(C)C(=O)N(C)CC)cc3)CC2)cc1` (stereo not drawn) [Example 4.5], for which the IC50 was found to be 5210 nM.

As for `CCOc1ccc(C2CCN(c3ccc(C(C)C(=O)NC4CC4)cc3)CC2)cc1` (stereo not drawn) [Example 7.3], the IC50 was determined as 890 nM.

On to `CCCNC(=O)C(C)c1ccc(C2CCN(c3ccc(OCC)cc3)CC2)cc1` (stereo not drawn) [Example 4.15], for which the IC50 was determined as 290 nM. As for `CCOc1ccc(N2CCC(c3ccc(C(C)C(=O)NC4CC4)cc3)CC2)c(C#N)c1` (stereo not drawn) [Example 3.3], the figure is 140 nM. As for `CCNC(=O)C(C)c1ccc(C2CCN(c3ccc(OCC)cc3F)CC2)cc1` (stereo not drawn) [Example 1.12], the figure is 330 nM; as for `CCCOc1ccc(C2CCN(c3ccc(C(C)C(=O)NCC)cc3)CC2)cc1` (stereo not drawn) [Example 7.4], 220 nM. Turning to `CCNC(=O)C(C)c1ccc(C2CCN(c3ccnc(N(C)C)n3)CC2)cc1` (stereo not drawn) [Example 5.2], the IC50 stood at 630 nM.

Consider `CCOc1ccc(N2CCC(c3ccc(C(C)C(=O)NC)cc3)CC2)cc1` (stereo not drawn) [Example 4.3], for which the IC50 was 760 nM. As for `CCNC(=O)C(C)c1ccc(C2CCN(c3ccnc(OCC)n3)CC2)cc1` (stereo not drawn) [Example 6.1, 2-{4-[1-(2-Ethoxy-pyrimidin-4-yl)-piperidin-4-yl]-phenyl}-N-ethyl-propionamide], the figure is 5480 nM.

As to `CCOc1ccc(N2CCC(c3ccc(C(C)C(=O)Nc4ccccc4)cc3)CC2)cc1` (stereo not drawn) [Example 4.6], half-maximal inhibition (IC50) required 80 nM. With `CCNC(=O)C(C)c1ccc(N2CCC(c3cccc(OCC)c3)CC2)cc1` (stereo not drawn) [Example 7.13] the figure was 4840 nM; with `COCCNC(=O)Cc1ccc(C2CCN(c3ccnc(N(C)C4CCCC4)n3)CC2)cc1` [Example 4.14], 4830 nM; with `CCNC(=O)C(C)c1ccc(C2CCN(c3ccc(OC(C)C)cc3OC)CC2)cc1` (stereo not drawn) [Example 1.9], 510 nM. As for `CCOc1ccc(N2CCC(c3ccc(C(C)C(=O)N(C)C)cc3)CC2)cc1` (stereo not drawn) [Example 4.4], the figure is 6650 nM; as for `CCNC(=O)Cc1ccc(C2CCN(c3ccnc(N(C)C4CCCC4)n3)CC2)cc1` [Example 4.2], 400 nM; as for `CCCOc1ccc(N2CCC(c3ccc(C(C)C(=O)NC4CC4)cc3)CC2)c(C#N)c1` (stereo not drawn) [Example 3.4], 120 nM. `CCNC(=O)C(C)c1ccc(N2CCC(c3cccc(OC(C)C)c3)CC2)cc1` (stereo not drawn) [Example 7.12] had an IC50 of 1800 nM. In turn, `CCNC(=O)C(C)c1ccc(C2CCN(c3ccnc(NC(C)C)n3)CC2)cc1` (stereo not drawn) [Example 5.3] showed an IC50 of 7630 nM. Take `CCCOc1ccc(N2CCC(c3ccc(C(C)C(=O)NCC)cc3)CC2)c(OC)c1` (stereo not drawn) [Example 1.7]: the IC50 worked out at 320 nM. `CCN(C)C(=O)Cc1ccc(C2CCN(c3ccnc(N(C)C4CCCC4)n3)CC2)cc1` [Example 4.8] showed an IC50 of 12500 nM. As for `CN(c1nccc(N2CCC(c3ccc(CC(=O)Nc4ccccc4)cc3)CC2)n1)C1CCCC1` [Example 4.11], the figure is 720 nM. With `CC(C(=O)NC1CC1)c1ccc(C2CCN(c3ccc(OCC4CC4)cc3)CC2)cc1` (stereo not drawn) [Example 1.14] the figure was 80 nM; with `CN(c1nccc(N2CCC(c3ccc(CC(=O)NC4CCCC4)cc3)CC2)n1)C1CCCC1` [Example 4.10], 4180 nM; with `CCNC(=O)C(C)c1ccc(N2CCC(c3ccc(OC4CCC4)cc3)CC2)cc1` (stereo not drawn) [Example 7.9], 120 nM. Turning to `CCNC(=O)C(C)c1ccc(C2CCN(c3ccnc(OCC)c3)CC2)cc1` (stereo not drawn) [Example 1.6], half-maximal inhibition (IC50) required 510 nM. With `CCNC(=O)C(C)c1ccc(N2CCC(c3cccc(OCC4CC4)c3)CC2)cc1` (stereo not drawn) [Example 7.6] the figure was 2310 nM; with `CCNC(=O)C(C)c1ccc(C2CCN(c3ccc(OC(C)CC)cc3)CC2)cc1` (stereo not drawn) [Example 1.4], 890 nM.

The compound `CCNC(=O)C(C)c1ccc(N2CCC(c3ccc(OCC4CC4)cc3)CC2)cc1` (stereo not drawn) [Example 7.5] registered an IC50 of 360 nM. For the compound `CCCOc1cccc(C2CCN(c3ccc(C(C)C(=O)NCC)cc3)CC2)c1` (stereo not drawn) [Example 7.11], the IC50 was determined as 3850 nM. `CCNC(=O)C(C)c1ccc(C2CCN(c3ccnc(N(C)C4CCCC4)n3)CC2)cc1` (stereo not drawn) [Example 5.1, 2-(4-{1-[2-(Cyclopentyl-methyl-amino)-pyrimidin-4-yl]-piperidin-4-yl}-phenyl)-N-ethyl-propionamide] came in with an IC50 of 370 nM. Regarding `CN(c1nccc(N2CCC(c3ccc(CC(=O)N4CCOCC4)cc3)CC2)n1)C1CCCC1` [Example 4.9], it took 5530 nM to reach half-maximal inhibition (IC50). With `CCNC(=O)C(C)c1ccc(C2CCN(c3ccc(OC4CC4)cc3OC)CC2)cc1` (stereo not drawn) [Example 1.11] the figure was 520 nM; with `CCNC(=O)C(C)c1ccc(C2CCN(c3ccc(OC)cc3C#N)CC2)cc1` (stereo not drawn) [Example 3.2], 450 nM. Consider `CCNC(=O)C(C)c1ccc(C2CCN(c3ccc(OCC4CC4)cc3)CC2)cc1` (stereo not drawn) [Example 1.3], for which inhibition was half-maximal at 240 nM (IC50).
